Structures are written as SMILES. Read-outs that look alike come from different tables or passages of the source.

Experiment [1] deals with T1, HIF-2α HIS TAG-PASB Domain (Homo sapiens, UniProt Q99814).
T1 construct: 100 nM HIF-2α HIS TAG-PASB Domain
The experiment can be described thus: HIF-2α Scintillation Proximity Assay (SPA). It counts as binding. As to conditions: 100 nM HIF-2α HIS TAG-PASB Domain. An outline of the steps:
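IC50 values rest on percent inhibition, where the sample signal is scaled between high and low controls. Wells contain about 100 μL: compound dispensed as 2 μL of DMSO solution, 88 μL protein-probe mix and 10 μL of beads.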
(In general: SPA uses beads or plates that emit light when radiolabelled molecules are held near them.)

Experiment [2] has as its system 786-O-Hif-Luc cells. Put plainly: Luciferase Assay. As to conditions: read-out: Luciferase EC50. It counts as cell-based. The method, then: A pool of infected cells were then selected against 2 μg/mL of puromycin (P8833, Sigma) for 10 days followed by limited dilution to select single clones.
Each concentration was tested in triplicate. After about 24 hours, luciferase activity was determined using ONE-Glo Luciferase Assay Reagent (E6110, Promega) following the manufacturer's recommended procedure. EC50 were calculated by using Dotmatics software.

In experiment [3] the test system is 786-0 cells. The experiment can be described thus: VEGF ELISA Assay. The experiment is classed as cell-based. As for the experimental part: Each concentration had duplicated wells. About 20 hours later, medium was removed by suction and each well was supplied with 180 μL of growth medium. About 20 μl freshly-made 10× compound stocks were added to each well. […] The EC50 was calculated by GraphPad Prism using the dose-response-inhibition (four parameter) equation. The cell seeded plate was then subjected to CellTiter-Glo luminescence cell viability assay (Promega) by adding 50 μL of Celltiter Glo reagent into each well and shaking the plate for 8 minutes at 550 rpm (Thermomixer R, Eppendorf) then read luminescence signal in plate reader (3 second delay, 0.5 second/well integration time, Synergy 2 multi Detection Microplate reader) immediately.

The mark [4] stands for this setting: 150 nM Compound 211 probe, read-out: SPA IC50.
The mark [5] stands for this setting: 24 h, 786-O-Hif-Luc cells, about 24 hours.
Where [6] appears, read: Homo sapiens, 786-0, 786-0 cells, VEGFA concentration in cell culture medium, read-out: VEGF ELISA EC50.
[7] abbreviates: 786-O-Hif-Luc cells, about 24 hours.
Setting [8] is: Homo sapiens, 786-0 cells, VEGFA concentration in cell culture medium, read-out: VEGF ELISA EC50.

T1 sequence (Q99814 240-350 limits assumed): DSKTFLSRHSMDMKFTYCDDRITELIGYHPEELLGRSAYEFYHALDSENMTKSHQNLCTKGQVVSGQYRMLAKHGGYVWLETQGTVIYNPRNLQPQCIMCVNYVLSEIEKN

As usually defined, the IC50 is the concentration needed to halve the response being measured. The term EC50 denotes the concentration at which the effect is half-maximal. `N#Cc1cncc(Oc2ccc(S(=O)(=O)C(F)(F)F)c3c2C[C@@H](F)[C@H]3O)c1` [Compound 14, 5-(((1S,2R)-2-Fluoro-1-hydroxy-7-((trifluoromethyl)sulfonyl)-2,3-dihydro-1H-inden-4-yl)oxy)nicotinonitrile]: the IC50 in experiment [1] (setting [4]) was below 5 nM. Moreover, the EC50 in experiment [2] (setting [5]) came to 25 nM; in experiment [3] (setting [6]) it was 69 nM.

Turning to `N#Cc1cc(Oc2ccc(S(=O)(=O)C(F)(F)F)c3c2CC(F)(F)[C@H]3O)c[n+]([O-])c1` [Compound 31, (S)-3-cyano-5-((2,2-difluoro-1-hydroxy-7-((trifluoromethyl)sulfonyl)-2,3-dihydro-1H-inden-4-yl)oxy)pyridine 1-oxide], in experiment [1] (setting [4]), the IC50 came out at 110 nM. For the same compound, the figures for the EC50 in experiment [2] (setting [5]) and in experiment [3] (setting [6]) were 160 nM and 830 nM, respectively.

For `N#Cc1cc(F)cc(Oc2ccc(C(F)(F)F)c3c2CC(F)(F)[C@H]3O)c1` [Compound 37, 3-[(1S)-2,2-Difluoro-1-hydroxy-7-(trifluoromethyl)indan-4-yl]oxy-5-fluoro-benzonitrile], the IC50 in experiment [1] (setting [4]) was below 5 nM. Besides, the figures for the EC50 in experiment [2] (setting [5]) and in experiment [3] (setting [6]) were 5 nM and 6 nM, respectively.

For the compound `CS(=O)(=O)c1ccc(Oc2cc(F)cc(C#N)c2)c2c1[C@H](O)C(F)(F)[C@@H]2F` [Compound 56, 3-fluoro-5-[(1S,3R)-2,2,3-trifluoro-1-hydroxy-7-methylsulfonyl-indan-4-yl]oxy-benzonitrile], the IC50 in experiment [1] (setting [4]) was below 5 nM. For the same compound, the EC50 in experiment [2] (24 h) is 3 nM; in experiment [3] (Homo sapiens, 786-0, read-out: VEGF ELISA EC50) it was 6 nM.

As for `N#Cc1cncc(Oc2ccc(C(F)(F)F)c3c2CC(F)(F)[C@H]3O)c1` [Compound 67, 5-[(1S)-2,2-difluoro-1-hydroxy-7-(trifluoromethyl)indan-4-yl]oxypyridine-3-carbonitrile], in experiment [1] (setting [4]), the IC50 was 37 nM. Further, the EC50 in experiment [2] (setting [5]) stood at 35 nM; in experiment [3] (setting [6]), 64 nM.

In the case of `CS(=O)(=O)c1ccc(Oc2cc(F)cc(Br)c2)c2c1[C@H](O)C(F)(F)C2` [Compound 68, (S)-4-(3-bromo-5-fluorophenoxy)-2,2-difluoro-7-(methylsulfonyl)-2,3-dihydro-1H-inden-1-ol], the IC50 in experiment [1] (setting [4]) was below 5 nM. In addition, the EC50 in experiment [2] (setting [5]) was 22 nM; in experiment [3] (setting [6]), 62 nM.

Take `O=S(=O)(c1ccc(Oc2cncc(F)c2)c2c1[C@H](O)C(F)(F)C2)C(F)(F)F` [Compound 73, (S)-2,2-difluoro-4-((5-fluoropyridin-3-yl)oxy)-7-((trifluoromethyl)sulfonyl)-2,3-dihydro-1H-inden-1-ol]: the IC50 in experiment [1] (setting [4]) was below 5 nM. Besides, the EC50 in experiment [2] (setting [5]) worked out at 9 nM; in experiment [3] (setting [6]) it was 26 nM.

`O=S(=O)(c1ccc(Oc2cc(F)c[n+]([O-])c2)c2c1[C@H](O)C(F)(F)C2)C(F)(F)F` [Compound 74, (S)-3-((2,2-difluoro-1-hydroxy-7-((trifluoromethyl)sulfonyl)-2,3-dihydro-1H-inden-4-yl)oxonio)-5-fluoropyridine 1-oxide]: the IC50 in experiment [1] (setting [4]) came out at 16 nM. Also, the figures for the EC50 in experiment [2] (setting [5]) and in experiment [3] (setting [6]) were 113 nM and 140 nM, respectively.

`N#Cc1cncc(Oc2ccc(S(=N)(=O)C(F)(F)F)c3c2CC(F)(F)[C@H]3O)c1` (stereo partly drawn) [Compound 78, 5-(((1S)-2,2-difluoro-1-hydroxy-7-(S-(trifluoromethyl)sulfonimidoyl)-2,3-dihydro-1H-inden-4-yl)oxy)nicotinonitrile]: in experiment [1] (setting [4]), the IC50 was found to be 25 nM. The EC50 in experiment [2] (setting [5]) was found to be 148 nM; in experiment [3] (setting [6]), 83 nM.

As to `N#Cc1cncc(Oc2ccc(S(=N)(=O)C(F)(F)F)c3c2CC(F)(F)[C@H]3O)c1` (stereo partly drawn) [Compound 79, 5-(((1S)-2,2-difluoro-1-hydroxy-7-(S-(trifluoromethyl)sulfonimidoyl)-2,3-dihydro-1H-inden-4-yl)oxy)nicotinonitrile], the IC50 in experiment [1] (setting [4]) came out at 23 nM. Further, the EC50 worked out at 106 nM in experiment [2] (setting [7]) and 116 nM in experiment [3] (786-0 cells, VEGFA concentration in cell culture medium, read-out: VEGF ELISA EC50).

With `CS(=O)(=O)c1ccc(Oc2cncc(C#N)c2)c2c1[C@H](O)C(F)(F)C2` [Compound 89, (S)-5-((2,2-Difluoro-1-hydroxy-7-(methylsulfonyl)-2,3-dihydro-1H-inden-4-yl)oxy)nicotinonitrile], the IC50 in experiment [1] (setting [4]) stood at 180 nM. For the same compound, the EC50 is 488 nM in experiment [2] (setting [5]) and 146 nM in experiment [3] (setting [6]).

As to `CS(=O)(=O)c1ccc(Oc2ccc(F)c(C#N)c2)c2c1[C@H](O)C(F)(F)[C@@H]2F` [Compound 91, 2-Fluoro-5-(((1S,3R)-2,2,3-trifluoro-1-hydroxy-7-(methylsulfonyl)-2,3-dihydro-1H-inden-4-yl)oxy)benzonitrile], the IC50 in experiment [1] (setting [4]) was 28 nM. For the same compound, the EC50 in experiment [2] (setting [5]) came out at 129 nM; in experiment [3] (setting [6]), 273 nM.

As for `CS(=O)(=O)c1ccc(Oc2cncc(Br)c2)c2c1[C@H](O)[C@H](F)[C@@H]2F` [Compound 92, (1S,2S,3R)-4-((5-Bromopyridin-3-yl)oxy)-2,3-difluoro-7-(methylsulfonyl)-2,3-dihydro-1H-inden-1-ol], in experiment [1] (setting [4]), the IC50 was determined as 32 nM. Further, the EC50 was 162 nM in experiment [2] (setting [5]) and 187 nM in experiment [3] (setting [6]).

`CS(=O)(=O)c1ccc(Oc2cncc(F)c2)c2c1[C@H](O)C(F)(F)[C@@H]2F` [Compound 93, (1S,3R)-2,2,3-trifluoro-4-((5-fluoropyridin-3-yl)oxy)-7-(methylsulfonyl)-2,3-dihydro-1H-inden-1-ol]: in experiment [1] (setting [4]), the IC50 was below 5 nM. The EC50 in experiment [2] (setting [5]) came to 34 nM; in experiment [3] (setting [6]), 47 nM.

For the compound `CS(=O)(=O)c1ccc(Oc2cncc(Cl)c2)c2c1[C@H](O)C(F)(F)[C@@H]2F` [Compound 95, (1S,3R)-4-((5-chloropyridin-3-yl)oxy)-2,2,3-trifluoro-7-(methylsulfonyl)-2,3-dihydro-1H-inden-1-ol], the IC50 in experiment [1] (setting [4]) turned out to be 7.2 nM. In addition, the EC50 in experiment [2] (setting [5]) and in experiment [3] (setting [6]) was 41 nM in each case.

Consider `CS(=O)(=O)c1ccc(Oc2cncc(C#N)c2)c2c1[C@H](O)[C@H](F)[C@@H]2F` [Compound 97, 5-(((1S,2S,3R)-2,3-difluoro-1-hydroxy-7-(methylsulfonyl)-2,3-dihydro-1H-inden-4-yl)oxy)nicotinonitrile], for which, in experiment [1] (setting [4]), the half-inhibitory concentration (IC50) was 74 nM. For the same compound, the EC50 in experiment [2] (setting [5]) turned out to be 174 nM; in experiment [3] (setting [6]) it was 163 nM.

Regarding `N#Cc1cncc(Oc2ccc(S(N)(=O)=O)c3c2[C@@H](F)C(F)(F)[C@H]3O)c1` [Compound 104, (1R,3S)-7-[(5-cyano-3-pyridyl)oxy]-1,2,2-trifluoro-3-hydroxy-indane-4-sulfonamide], the IC50 in experiment [1] (setting [4]) came out at 24 nM. Also, the EC50 was 125 nM in experiment [2] (setting [5]) and 136 nM in experiment [3] (setting [6]).

For `NS(=O)(=O)c1ccc(Oc2cncc(F)c2)c2c1[C@H](O)C(F)(F)[C@@H]2F` [Compound 105, (1R,3S)-1,2,2-trifluoro-7-[(5-fluoro-3-pyridyl)oxy]-3-hydroxy-indane-4-sulfonamide], the IC50 in experiment [1] (setting [4]) is 18 nM. Also, the EC50 in experiment [2] (setting [5]) amounted to 114 nM; in experiment [3] (setting [6]) it was 160 nM.

Turning to `CS(=O)(=O)c1ccc(Oc2cncc(C#N)c2)c2c1[C@H](O)C(F)(F)[C@@H]2F` [Compound 106, 5-(((1S,3R)-2,2,3-trifluoro-1-hydroxy-7-(methylsulfonyl)-2,3-dihydro-1H-inden-4-yl)oxy)nicotinonitrile], in experiment [1] (setting [4]), the IC50 was determined as 47 nM. In addition, the EC50 in experiment [2] (setting [5]) stood at 88 nM; in experiment [3] (setting [6]), 95 nM.

For the compound `N#Cc1cncc(Oc2ccc(S(=O)(=O)CF)c3c2[C@@H](F)C(F)(F)[C@H]3O)c1` [Compound 108, 5-(((1S,3R)-2,2,3-trifluoro-7-((fluoromethyl)sulfonyl)-1-hydroxy-2,3-dihydro-1H-inden-4-yl)oxy)nicotinonitrile], in experiment [1] (setting [4]), the IC50 turned out to be 6.7 nM. The EC50 was 42 nM in experiment [2] (setting [5]) and 123 nM in experiment [3] (setting [6]).

Take `N#Cc1cc(F)cc(Oc2ccc3c(c2Br)[C@@H](O)C(F)(F)S3(=O)=O)c1` [Compound 111, (R)-3-((4-bromo-2,2-difluoro-3-hydroxy-1,1-dioxido-2,3-dihydrobenzo[b]thiophen-5-yl)oxy)-5-fluorobenzonitrile]: in experiment [1] (setting [4]), the IC50 stood at 7.2 nM. The EC50 turned out to be 23 nM in experiment [2] (setting [7]) and 64 nM in experiment [3] (setting [8]).

Regarding `N#Cc1c(Oc2cc(F)cc(Cl)c2)ccc2c1C(O)CS2(=O)=O` (stereo not drawn) [Compound 117, 5-(3-chloro-5-fluorophenoxy)-3-hydroxy-2,3-dihydrobenzo[b]thiophene-4-carbonitrile 1,1-dioxide], the IC50 in experiment [1] (setting [4]) is 61 nM. Besides, the figures for the EC50 in experiment [2] (setting [7]) and in experiment [3] (setting [8]) were 451 nM and 333 nM, respectively.

`O=S1(=O)c2ccc(Oc3cc(F)cc(Cl)c3)c(C(F)(F)F)c2C(O)C1(F)F` (stereo not drawn) [Compound 124, 5-(3-Chloro-5-fluorophenoxy)-2,2-difluoro-3-hydroxy-4-(trifluoromethyl)-2,3-dihydrobenzo[b]thiophene 1,1-dioxide] had an IC50 in experiment [1] (SPA IC50, 150 nM Compound 211 probe) below 5 nM. Further, the EC50 in experiment [2] (setting [7]) amounted to 75 nM; in experiment [3] (setting [8]) it was 89 nM.

The record behind these values is patent publication US10098878B2, “HIF-2α inhibitors for treating iron overload disorders” (The Board of Regents of the University of Texas System, priority 2014, dated 2018).
